Reference: US20240199616A1, “BICYCLIC COMPOUNDS AS ALLOSTERIC SHP2 INHIBITORS” (Revolution Medicines, Inc., priority 2017, published 2024)
pIC50: −log10 of the molar value.

Target: SHP2 (Homo sapiens (Human), UniProt Q06124)
Experiment: SHP2 allosteric inhibition assay (DiFMUP prompt fluorescence)
Assay type: biochemical
Details: 0.2 nM SHP2 incubated with 0.5 μM Activating Peptide 1 or 2, 30-60 min at 25° C., surrogate substrate DiFMUP, kinetic read
Description: Without wishing to be bound by theory, SHP is allosterically activated through binding of bis-tyrosyl-phosphorylated peptides to its Src Homology 2 (SH2) domains. The latter activation step leads to the release of the auto-inhibitory interface of SHP2, which in turn renders the SHP2 protein tyrosine phosphatase (PTP) active and available for substrate recognition and reaction catalysis. The catalytic activity of SHP2 was monitored using the surrogate substrate DiFMUP in a prompt fluorescence assay format.
The phosphatase reactions were performed at room temperature in 96-well black polystyrene plate, flat bottom, non-binding surface (Corning, Cat #3650) using a final reaction volume of 100 μL and the following assay buffer conditions: 50 mM HEPES, pH 7.2, 100 mM NaCl, 0.5 mM EDTA, 0.05% P-20, 1 mM DTT.
The inhibition of SHP2 by compounds of the disclosure (concentrations varying from 0.00005-10 μM) was monitored using an assay in which 0.2 nM of SHP2 was incubated with 0.5 μM of Activating Peptide 1 (sequence: H2N-LN(pY)IDLDLV(dPEG8)LST(pY)ASINFQK-amide) or Activating Peptide 2 (sequence: H2N-LN(pY)AQLWHA(dPEG8)LTI(pY)ATIRRF-amide). […]

pIC50: 7.47
SMILES: Cc1nc(N2CCC3(CCC[C@H]3N)CC2)c2cncn2c1-c1cccc(Cl)c1Cl [Compound 3, (1R)-8-[5-(2,3-dichlorophenyl)-6-methylimidazo[1,5-a]pyrazin-8-yl]-8-azaspiro[4.5]decan-1-amine]
